The record followed here is ChEMBL document CHEMBL1153814, “Synthesis of 3-deoxypentacyclic triterpene derivatives as inhibitors of glycogen phosphorylase” (J Nat Prod, 2009).

The target in this test is T1, Glycogen phosphorylase, muscle form (Oryctolagus cuniculus, UniProt P00489).
T1 sequence (P00489 whole entry): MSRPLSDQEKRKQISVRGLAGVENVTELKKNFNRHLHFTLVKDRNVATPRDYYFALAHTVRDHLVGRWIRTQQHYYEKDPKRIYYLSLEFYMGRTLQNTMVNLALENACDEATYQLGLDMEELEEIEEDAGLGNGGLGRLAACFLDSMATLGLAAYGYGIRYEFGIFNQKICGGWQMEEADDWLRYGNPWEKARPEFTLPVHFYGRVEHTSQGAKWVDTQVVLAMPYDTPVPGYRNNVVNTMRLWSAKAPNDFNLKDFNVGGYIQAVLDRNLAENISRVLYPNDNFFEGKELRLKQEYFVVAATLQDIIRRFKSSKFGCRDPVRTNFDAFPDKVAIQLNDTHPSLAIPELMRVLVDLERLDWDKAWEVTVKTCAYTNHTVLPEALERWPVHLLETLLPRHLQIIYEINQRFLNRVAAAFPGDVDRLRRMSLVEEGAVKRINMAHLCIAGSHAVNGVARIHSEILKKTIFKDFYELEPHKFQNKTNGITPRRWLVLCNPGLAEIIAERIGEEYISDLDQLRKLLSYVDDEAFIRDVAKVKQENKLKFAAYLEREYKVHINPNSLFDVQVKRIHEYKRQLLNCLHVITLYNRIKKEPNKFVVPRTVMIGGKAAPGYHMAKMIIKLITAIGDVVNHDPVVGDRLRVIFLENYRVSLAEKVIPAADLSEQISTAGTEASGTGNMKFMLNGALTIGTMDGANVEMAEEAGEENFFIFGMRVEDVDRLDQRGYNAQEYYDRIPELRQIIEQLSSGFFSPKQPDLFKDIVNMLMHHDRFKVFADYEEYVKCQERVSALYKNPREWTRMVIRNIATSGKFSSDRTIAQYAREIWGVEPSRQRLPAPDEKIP
Nature of the test: Inhibition of rabbit muscle glycogen phosphorylase assessed as release of phosphate from glucose-1-phosphate after 25 mins.

On to `CC1(C)CC[C@]2(C(=O)O)CC[C@]3(C)C(=CC[C@@H]4[C@@]5(C)C[C@@H](OC(=O)CCC(=O)O)CC(C)(C)[C@@H]5CC[C@]43C)[C@@H]2C1`, for which the IC50 (as a rule, the point on the concentration scale where inhibition reaches its midpoint) is listed as “Not Active”.
For `CC1CC[C@]2(C(=O)OCc3ccccc3)CC[C@]3(C)C(=CC[C@@H]4[C@@]5(C)C[C@H](O)CC(C)(C)[C@@H]5CC[C@]43C)[C@@H]2[C@H]1C` (stereo partly specified), the concentration for half-maximal inhibition (IC50) (read-out: IC50) is 22.3 µM.
For the compound `C[C@H]1[C@H](C)CC[C@]2(C(=O)OCc3ccccc3)CC[C@]3(C)C(=CC[C@@H]4[C@@]5(C)C[C@@H](O)CC(C)(C)[C@@H]5CC[C@]43C)[C@H]12`, the IC50 (read-out: IC50) was found to be 55.8 µM.
On the same count and under the same terms, for `CCC(=O)O[C@H]1CC(C)(C)[C@@H]2CC[C@]3(C)[C@H](CC=C4[C@@H]5CC(C)(C)CC[C@]5(C(=O)OCc5ccccc5)CC[C@]43C)[C@@]2(C)C1` the value was 121 µM; for `CCCC(=O)O[C@H]1CC(C)(C)[C@@H]2CC[C@]3(C)[C@H](CC=C4[C@@H]5CC(C)(C)CC[C@]5(C(=O)OCc5ccccc5)CC[C@]43C)[C@@]2(C)C1`, 108 µM; for `CCCC(=O)O[C@H]1CC(C)(C)[C@@H]2CC[C@]3(C)[C@H](CC=C4[C@@H]5CC(C)(C)CC[C@]5(C(=O)O)CC[C@]43C)[C@@]2(C)C1`, 75.6 µM.
For `CC1(C)CC[C@]2(C(=O)OCc3ccccc3)CC[C@]3(C)C(=CC[C@@H]4[C@@]5(C)C[C@@H](OC(=O)c6ccccc6)CC(C)(C)[C@@H]5CC[C@]43C)[C@@H]2C1`, for the setting “read-out: IC50”, the IC50 is 48.4 µM.
For the compound `CC1(C)CC[C@]2(C(=O)O)CC[C@]3(C)C(=CC[C@@H]4[C@@]5(C)C[C@@H](OC(=O)c6ccccc6)CC(C)(C)[C@@H]5CC[C@]43C)[C@@H]2C1`, the IC50 (read-out: IC50) worked out at 40.7 µM.
On to `CC1(C)CC[C@]2(C(=O)OCc3ccccc3)CC[C@]3(C)C(=CC[C@@H]4[C@@]5(C)C[C@@H](OC(=O)CCC(=O)O)CC(C)(C)[C@@H]5CC[C@]43C)[C@@H]2C1`, for which the IC50 (read-out: IC50) came to 80.9 µM.
As to `CC1(C)CC[C@]2(C(=O)OCCCCBr)CC[C@]3(C)C(=CC[C@@H]4[C@@]5(C)C[C@H](O)CC(C)(C)[C@@H]5CC[C@]43C)[C@@H]2C1`, the IC50 (read-out: IC50) was determined as 48.7 µM.
Take `C[C@@H]1[C@H]2C3=CC[C@@H]4[C@@]5(C)C[C@@H](O)CC(C)(C)[C@@H]5CC[C@@]4(C)[C@]3(C)CC[C@@]2(C(=O)OCc2ccccc2)CCC1(C)C`: the IC50 (read-out: IC50) is 5.6 µM.
In the case of `CC(=O)O[C@H]1CC(C)(C)[C@@H]2CC[C@]3(C)[C@H](CC=C4[C@@H]5CC(C)(C)CC[C@]5(C(=O)OCc5ccccc5)CC[C@]43C)[C@@]2(C)C1`, the IC50 result is reported as “Not Active”.
On to `C[C@H]1[C@H](C)CC[C@]2(C(=O)OCc3ccccc3)CC[C@]3(C)C(=CC[C@@H]4[C@@]5(C)C/C(=N\O)CC(C)(C)[C@@H]5CC[C@]43C)[C@H]12`, for which the IC50 (read-out: IC50) is 20.2 µM.
Regarding `CC1(C)CC[C@]2(C(=O)OCc3ccccc3)CC[C@]3(C)C(=CC[C@@H]4[C@@]5(C)C[C@H](O)CC(C)(C)[C@@H]5CC[C@]43C)[C@@H]2C1`, the IC50 (read-out: IC50) is 4.2 µM.
On the same count and under the same terms, then `CC1(C)CC[C@]2(C(=O)O)CC[C@]3(C)C(=CC[C@@H]4[C@@]5(C)C[C@@H](O)CC(C)(C)[C@@H]5CC[C@]43C)[C@@H]2C1`, with 8.5 µM.
The same measure, in the same setting: then `CCCCOC(=O)[C@]12CCC(C)(C)C[C@H]1C1=CC[C@@H]3[C@@]4(C)C[C@H](O)CC(C)(C)[C@@H]4CC[C@@]3(C)[C@]1(C)CC2`, with 13.8 µM; and `C=CCOC(=O)[C@]12CCC(C)(C)C[C@H]1C1=CC[C@@H]3[C@@]4(C)C[C@H](O)CC(C)(C)[C@@H]4CC[C@@]3(C)[C@]1(C)CC2`, with 23.1 µM.
Same read-out and setting: then `COC(=O)[C@]12CCC(C)(C)C[C@H]1C1=CC[C@@H]3[C@@]4(C)C[C@H](O)CC(C)(C)[C@@H]4CC[C@@]3(C)[C@]1(C)CC2`, with 28.1 µM; and `CCOC(=O)[C@]12CCC(C)(C)C[C@H]1C1=CC[C@@H]3[C@@]4(C)C[C@H](O)CC(C)(C)[C@@H]4CC[C@@]3(C)[C@]1(C)CC2`, with 15.3 µM.
As to `CCCOC(=O)[C@]12CCC(C)(C)C[C@H]1C1=CC[C@@H]3[C@@]4(C)C[C@H](O)CC(C)(C)[C@@H]4CC[C@@]3(C)[C@]1(C)CC2`, the IC50 (read-out: IC50) came to 27.3 µM.
Same read-out and setting: for `C[C@H]1[C@H](C)CC[C@]2(C(=O)O)CC[C@]3(C)C(=CC[C@@H]4[C@@]5(C)C/C(=N\O)CC(C)(C)[C@@H]5CC[C@]43C)[C@H]12` the value was 14.7 µM; for `CC1(C)CC[C@]2(C(=O)OCCBr)CC[C@]3(C)C(=CC[C@@H]4[C@@]5(C)C[C@H](O)CC(C)(C)[C@@H]5CC[C@]43C)[C@@H]2C1`, 25.4 µM; for `CC1(C)CC[C@]2(C(=O)OCCCBr)CC[C@]3(C)C(=CC[C@@H]4[C@@]5(C)C[C@H](O)CC(C)(C)[C@@H]5CC[C@]43C)[C@@H]2C1`, 37.2 µM.
For the compound `CC1(C)CC[C@]2(C(=O)OCc3ccccc3)CC[C@]3(C)C(=CC[C@@H]4[C@@]5(C)CC(=O)CC(C)(C)[C@@H]5CC[C@]43C)[C@@H]2C1`, the IC50 (read-out: IC50) worked out at 3.2 µM.
For the compound `C[C@H]1[C@H](C)CC[C@]2(C(=O)OCc3ccccc3)CC[C@]3(C)C(=CC[C@@H]4[C@@]5(C)CC(=O)CC(C)(C)[C@@H]5CC[C@]43C)[C@H]12`, the half-maximal inhibitory concentration (IC50) (read-out: IC50) is 24.2 µM.
On the same count and under the same terms, for `CC1(C)CC[C@]2(C(=O)OCc3ccccc3)CC[C@]3(C)C(=CC[C@@H]4[C@@]5(C)C/C(=N\O)CC(C)(C)[C@@H]5CC[C@]43C)[C@@H]2C1` the value was 16.3 µM; for `CCOC(=O)COC(=O)[C@]12CCC(C)(C)C[C@H]1C1=CC[C@@H]3[C@@]4(C)C[C@H](O)CC(C)(C)[C@@H]4CC[C@@]3(C)[C@]1(C)CC2`, 22.5 µM; for `CC1(C)CC[C@]2(C(=O)O)CC[C@]3(C)C(=CC[C@@H]4[C@@]5(C)C/C(=N\O)CC(C)(C)[C@@H]5CC[C@]43C)[C@@H]2C1`, 13.1 µM.
Take `CC(=O)O[C@H]1CC(C)(C)[C@@H]2CC[C@]3(C)[C@H](CC=C4[C@@H]5CC(C)(C)CC[C@]5(C(=O)O)CC[C@]43C)[C@@]2(C)C1`: the IC50 (read-out: IC50) is 42.4 µM.
Consider `C[C@H]1[C@H](C)CC[C@]2(C(=O)O)CC[C@]3(C)C(=CC[C@@H]4[C@@]5(C)C[C@@H](O)CC(C)(C)[C@@H]5CC[C@]43C)[C@H]12`, for which the IC50 (read-out: IC50) is 1.2 µM.
On to `CCC(=O)O[C@H]1CC(C)(C)[C@@H]2CC[C@]3(C)[C@H](CC=C4[C@@H]5CC(C)(C)CC[C@]5(C(=O)O)CC[C@]43C)[C@@]2(C)C1`, for which the IC50 (read-out: IC50) came out at 80.2 µM.
Regarding `CC1(C)CC[C@]2(C(=O)O)CC[C@]3(C)C(=CC[C@@H]4[C@@]5(C)C[C@H](O)CC(C)(C)[C@@H]5CC[C@]43C)[C@@H]2C1`, the IC50 (read-out: IC50) was 3.5 µM.
`C[C@@H]1[C@H]2C3=CC[C@@H]4[C@@]5(C)C[C@H](O)CC(C)(C)[C@@H]5CC[C@@]4(C)[C@]3(C)CC[C@@]2(C(=O)O)CC[C@@H]1C`: the IC50 (read-out: IC50) turned out to be 5.5 µM.
`CC1(C)CC[C@]2(C(=O)O)CC[C@]3(C)C(=CC[C@@H]4[C@@]5(C)CC(=O)CC(C)(C)[C@@H]5CC[C@]43C)[C@@H]2C1`: the IC50 (read-out: IC50) was determined as 14.9 µM.
For the compound `C[C@H]1[C@H](C)CC[C@]2(C(=O)O)CC[C@]3(C)C(=CC[C@@H]4[C@@]5(C)CC(=O)CC(C)(C)[C@@H]5CC[C@]43C)[C@H]12`, under “read-out: IC50”, the IC50 is 28.9 µM.
In the case of `C[C@H]1[C@H](C)CC[C@]2(C(=O)O)CC[C@]3(C)C(=CC[C@@H]4[C@@]5(C)CC[C@H](O)C(C)(C)[C@@H]5CC[C@]43C)[C@H]12` [URSOLIC ACID], the IC50 (read-out: IC50) was found to be 15.3 µM.
